Assay results reported in US4626505A, “Selectable markers for yeast transformation” (E. I. Du Pont de Nemours and Company, priority 1984, dated 1986).

System: industrial S. cerevisiae strains ATCC 7754 and ATCC 4921
Assay: Growth/resistance of industrial yeast strains, untransformed and transformed with pCP2-4-10
Format: cell-based, Saccharomyces cerevisiae
Details: for resistance of industrial transformants to structurally related sulfonylurea growth inhibitors: ATCC 7754 and ATCC 4921 transformed with pCP2-4-10
Description: […]. […] The optimum period of incubation with glusulase for producing spheroplasts was determined to be approximately 3 hours.
The resulting industrial transformants were resistant to other, structurally related sulfonylurea growth inhibitors in addition to sulfometuron methyl. These inhibitors included N-[(4-methoxy-6-methyl-pyrimidin-2-yl)aminocarbonyl]-2-nitrobenzenesulfonamide; N-[(4,6-dimethoxy-pyrimidin-2-yl)-aminocarbonyl]-2-methylthiobenzenesulfonamide; and 2-[[(4-chloro-6-methoxypyrimidine-2-yl)amino carbonyl]aminosulfonyl]benzoic acid, ethyl ester.

Structure (SMILES)	resistance of industrial transformants to structurally related sulfonylurea growth inhibitors	growth of untransformed wild-type strains (30 μg/mL, ATCC 7754 and ATCC 4921, untransformed)
COc1cc(C)nc(NC(=O)NS(=O)(=O)c2ccccc2[N+](=O)[O-])n1 [N-[(4-methoxy-6-methyl-pyrimidin-2-yl)aminocarbonyl]-2-nitrobenzenesulfonamide]	resistant	
COc1cc(OC)nc(NC(=O)NS(=O)(=O)c2ccccc2SC)n1 [N-[(4,6-dimethoxy-pyrimidin-2-yl)-aminocarbonyl]-2-methylthiobenzenesulfonamide]	resistant	
COC(=O)c1ccccc1S(=O)(=O)NC(=O)Nc1nc(C)cc(C)n1 [sulfometuron methyl]		completely inhibited
CCOC(=O)c1ccccc1S(=O)(=O)NC(=O)Nc1nc(Cl)cc(OC)n1 [2-[[(4-chloro-6-methoxypyrimidine-2-yl)aminocarbonyl]aminosulfonyl]benzoic acid, ethyl ester]	resistant	
